One compound from paper PMC11942905, “Identification of a Selective Inhibitor of Human NFS1, a Cysteine Desulfurase Involved in Fe-S Cluster Assembly, via Structure-Based Virtual Screening” (International Journal of Molecular Sciences, 2025) can be followed below.

Assay [1] has as its target T1, human cystathionine-β-synthase (CBS) (Homo sapiens, UniProt P35520).
T1 construct: made in house; host or cells: E. coli
T1 sequence (P35520 1-551): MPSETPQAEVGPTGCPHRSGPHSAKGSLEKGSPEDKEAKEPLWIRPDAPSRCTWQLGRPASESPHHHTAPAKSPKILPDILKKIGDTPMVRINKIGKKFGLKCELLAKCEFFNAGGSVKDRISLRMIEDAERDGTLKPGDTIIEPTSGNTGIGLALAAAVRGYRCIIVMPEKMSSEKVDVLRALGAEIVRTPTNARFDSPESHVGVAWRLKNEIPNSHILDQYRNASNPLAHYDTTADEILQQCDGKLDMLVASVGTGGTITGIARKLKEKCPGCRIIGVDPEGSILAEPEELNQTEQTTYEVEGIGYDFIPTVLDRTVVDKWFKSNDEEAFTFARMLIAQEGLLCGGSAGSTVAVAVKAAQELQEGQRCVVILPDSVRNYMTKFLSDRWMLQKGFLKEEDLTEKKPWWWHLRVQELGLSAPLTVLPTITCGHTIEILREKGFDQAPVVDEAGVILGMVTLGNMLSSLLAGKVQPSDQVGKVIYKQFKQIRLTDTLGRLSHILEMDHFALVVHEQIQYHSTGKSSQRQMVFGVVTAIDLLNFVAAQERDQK
The assay is described as follows: Selectivity assay, H2S-producing activity of CBS. It counts as biochemical. The conditions noted are these: at 100 µM. On the procedure: (§1) To evaluate the selectivity of Compounds 53 and 56, their effects on the activities of two other PLP-dependent enzymes, human cystathionine-β-synthase (CBS) and cystathionine-γ-lyase (CSE), were determined using a H2S-producing assay. Human CBS and CSE were expressed and purified in E. coli with a purity exceeding 90%, as confirmed by SDS-PAGE (Figures S4A and S5A). Subsequently, the H2S-producing activities of CBS and CSE were assessed in the presence of different concentrations of Compounds 53 and 56. A widely used CBS inhibitor, AOAA, and a specific CSE inhibitor, PAG, were used as positive controls (Figures S4B and S5B).
(§2) The H2S-producing activity of CBS was measured as previously described. The reaction mixture (200 μL) contained 50 mM of Hepes buffer (pH 7.4), 2 mM of homocysteine, 10 μM of PLP, 0.4 mM of lead nitrate, and 5 μg of CBS protein. It was preincubated at 37 °C for 3 min, and the reaction was initiated by the addition of 2 mM of cysteine. The reaction was monitored in a multifunctional microplate reader at 37 °C for 10 min. An extinction coefficient of 5500 M^−1 cm^−1 at 390 nm was used to calculate the lead sulfide concentration. The method used to determine CSE activity in the H2S-producing assay was identical to the CBS assay, except that 1 mM of cysteine was used as the sole substrate. […]

The target in assay [2] is T2, cystathionine-γ-lyase (CSE) (Homo sapiens, UniProt P32929).
T2 construct: made in house; host or cells: E. coli
T2 sequence (P32929 whole entry): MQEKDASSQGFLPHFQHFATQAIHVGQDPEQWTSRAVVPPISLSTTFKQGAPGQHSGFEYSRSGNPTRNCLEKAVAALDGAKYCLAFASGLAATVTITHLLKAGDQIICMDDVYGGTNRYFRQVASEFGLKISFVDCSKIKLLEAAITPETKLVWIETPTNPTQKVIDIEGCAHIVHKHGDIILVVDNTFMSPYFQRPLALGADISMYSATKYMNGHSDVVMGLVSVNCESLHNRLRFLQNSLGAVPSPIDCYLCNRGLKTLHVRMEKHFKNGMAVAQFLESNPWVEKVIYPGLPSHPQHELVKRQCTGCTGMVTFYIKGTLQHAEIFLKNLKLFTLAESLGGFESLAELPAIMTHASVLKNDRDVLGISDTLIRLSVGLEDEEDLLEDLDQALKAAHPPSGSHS
The experiment in a line: Selectivity assay, H2S-producing activity of CSE. It counts as biochemical. The conditions noted are these: at 100 µM. On the procedure:
as §1, §2

As to `COc1cc(/C=N/NC(=O)COc2ccc(Cl)cc2Cl)ccc1O` [Compound 53], the “inhibitory effect on CBS” value in assay [1] is on record as “no significant inhibitory effects”. In addition, in assay [2], the “inhibitory effect on CSE” value is “no significant inhibitory effects”.
